From publication PMC9841524, “Structure-Based Rational Design of Small α-Helical Peptides with Broad-Spectrum Activity against Multidrug-Resistant Pathogens” (Journal of Medicinal Chemistry, 2022)
Converted amounts (≈) assume the structure as drawn. Read-outs that look alike come from different tables or passages of the source. Where a SMILES comes first, the peptide text is derived from it. Bridges are numbered along the chain shown (N, C = ends). [ ]: non-standard residue; d: D form. The star is where a group is joined. X1 = CC[C@H](C)CCCCC(=O)*; Dab = NCC[C@H](N)C(=O)O

Columns and labels:
[1] = test system: K. pneumoniae (ATCCBAA-1705); test: MIC, standard microtiter dilution (CLSI); assay type: cell-based, Klebsiella pneumoniae; conditions: broth microdilution (CLSI), CAMHB, 37 °C, 24 h
In short: (§1)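 Inoculum 10^6 CFU/mL in CAMHB against 2-fold peptide series; salt variants used 150 mM NaCl, 4.5 mM KCl, 6 mM NH4Cl, 1 mM MgCl2, 2 mM CaCl2, or 25% FBS.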

[2] = test system: E. coli (ATCC BAA-2452); test: Bactericidal kinetic assay; assay type: cell-based
Procedure: The time course of bacterial killing was studied by the exposure of overnight grown cultures of MRSA (ATCC BAA-1556) and E. coli (ATCC BAA-2452) to 8a and 8b at the MIC and 4× the MIC in Muller Hinton media. Bacterial cells (2 × 10^6 CFU/mL) were treated with peptides and standard antibiotics and incubated at 37 °C. Aliquots were withdrawn at a 30 min time interval for 4 h and plated on the agar plate to determine the number of viable bacterial colonies. Data were obtained from two independent experiments performed in triplicate.

[3] = test system: E. coli (ATCC BAA-2452); test: Flow cytometric analysis of PI-stained cells; assay type: cell-based; conditions: MIC and 4 × MIC, 1 h, flow cytometry
Procedure: The flow cytometric analysis was performed by using MRSA (ATCC BAA-1556) and E. coli (ATCC BAA-2452) cultures grown to the mid log phase in Mueller Hinton broth (HIMEDIA). Before treatment, bacterial cells were washed thrice with buffer (10 mM Tris, pH 7.4) and resuspended in the same buffer to obtain 10^7 CFU/mL bacterial suspensions. Test peptides (8a and 8b) and the standard antibiotics (daptomycin and polymyxin B) at MIC and 4 × MIC were incubated with bacterial suspension for 1 h. Following the treatment with test peptides, the cells were pelleted by centrifugation at 3000g for 15 min in a microcentrifuge. The supernatant was decanted, and the cells were washed with PBS several times and then incubated with PI ([…]) in the dark for 15 min at 37 °C. FACS analysis of the stained bacterial cells was performed using a FACscan flow cytometer (BD Accuri C6, BD Biosciences, California, USA), and data were analyzed by using Cell Quest software.

[4] = test system: E. coli (ATCC BAA-2452); conditions: Gram-negative, NDM-1; CLSI microdilution, CAMHB, 37 °C, 24 h; highest MIC of three independent experiments in triplicate
In short: as §1

[5] = test system: P. aeruginosa (ATCC BAA-1744); conditions: Gram-negative, resistant strain (marked a; imipenem resistant in Table S3); CLSI microdilution, CAMHB, 37 °C, 24 h; highest MIC of three independent experiments in triplicate
In short: as §1

[6] = test system: A. baumannii (ATCC BAA1605); conditions: Gram-negative, footnote e ciprofloxacin (MDR in Table S3); CLSI microdilution, CAMHB, 37 °C, 24 h; highest MIC of three independent experiments in triplicate
In short: as §1

[7] = test system: K. pneumonia (ATCC BAA-2470); conditions: Gram-negative, carbapenem-resistant; CLSI microdilution, CAMHB, 37 °C, 24 h; highest MIC of three independent experiments in triplicate
In short: as §1

[8] = test system: Klebsiella pneumonia (ATCC 13883); conditions: Gram-negative; CLSI microdilution, CAMHB, 37 °C, 24 h; highest MIC of three independent experiments in triplicate
In short: as §1

[9] = test system: E. coli (ATCC 25922); conditions: for MIC, E. coli (ATCC 25922): broth microdilution (CLSI), CAMHB, 37 °C, 24 h
In short: as §1

[10] = test system: P. aeruginosa (ATCC 10145); conditions: Gram-negative; CLSI microdilution, CAMHB, 37 °C, 24 h; highest MIC of three independent experiments in triplicate
In short: as §1

[11] = test system: P. aeruginosa (ATCC 27883); test: MIC, standard microtiter dilution (CLSI); assay type: cell-based, Pseudomonas aeruginosa; conditions: broth microdilution (CLSI), CAMHB, 37 °C, 24 h
In short: as §1

[12] = 10^6 CFU/mL, highest MIC of three independent experiments in triplicate

SMILES: CC[C@H](C)CCCCC(=O)N[C@@H](CCN)C(=O)N[C@H](C(=O)N[C@@H](CCN)C(=O)N[C@H]1CCNC(=O)[C@H]([C@@H](C)O)NC(=O)[C@H](CCN)NC(=O)[C@H](CCN)NC(=O)[C@H](CC(C)C)NC(=O)[C@@H](Cc2ccccc2)NC(=O)[C@H](CCN)NC1=O)[C@@H](C)O [polymyxin B, reference compound] (X1-[Dab]T[Dab][Dab][Dab][dF]L[Dab][Dab]T; lactam 4-C (inferred); N-terminus assumed)
- MIC, K. pneumoniae (ATCCBAA-1705) [1, 12]: 0.7 µg/mL
- MIC, K. pneumoniae (ATCCBAA-1705) ([1]; value in parentheses (μM)): 0.58 µM
- time to complete eradication of E. coli cells at 4 × MIC [2]: 2.5 h
- PI-stained population of E. coli cells [3]: did not significantly increase
- MIC, E. coli (ATCC BAA-2452) [4]: 0.7 µg/mL
- MIC, P. aeruginosa (ATCC BAA-1744) [5]: 0.7 µg/mL
- MIC, A. baumannii (ATCC BAA1605) [6]: 0.7 µg/mL
- MIC, K. pneumonia (ATCC BAA-2470) [7]: 1.5 µg/mL
- MIC, Klebsiella pneumonia (ATCC 13883) [8]: 6.2 µg/mL
- MIC, E. coli (ATCC 25922), Control ([9]; MH media without salt ions or serum, three independent experiments in triplicate): 0.7 µg/mL
- MIC, E. coli (ATCC 25922) [9, 12]: 0.7 µg/mL
- MIC, E. coli (ATCC 25922), MgCl2 ([9]; media with 1 mM MgCl2, three independent experiments in triplicate): 1.5 µg/mL (≈ 1.25 µM)
- MIC, E. coli (ATCC 25922), CaCl2 ([9]; media with 2 mM CaCl2, three independent experiments in triplicate): 0.7 µg/mL (≈ 0.582 µM)
- MIC, E. coli (ATCC 25922), KCl ([9]; media with 4.5 mM KCl, three independent experiments in triplicate): 0.7 µg/mL (≈ 0.582 µM)
- MIC, E. coli (ATCC 25922), NH4Cl ([9]; media with 6 mM NH4Cl, three independent experiments in triplicate): 0.7 µg/mL (≈ 0.582 µM)
- MIC, E. coli (ATCC 25922), NaCl ([9]; media with 150 mM NaCl, three independent experiments in triplicate): 0.7 µg/mL (≈ 0.582 µM)
- MIC, E. coli (ATCC 25922), FBS (25%) ([9]; media with 25% fetal bovine serum, three independent experiments in triplicate): 3.1 µg/mL (≈ 2.58 µM)
- MIC, E. coli (ATCC 25922) ([9]; value in parentheses (μM)): 0.58 µM
- MIC, P. aeruginosa (ATCC 10145) [10]: 0.7 µg/mL
- MIC, P. aeruginosa (ATCC 27883) [11, 12]: 1.5 µg/mL
- MIC, P. aeruginosa (ATCC 27883) ([11]; value in parentheses (μM)): 1.25 µM
